# Patent publication US20250154590A1, “USE OF SET7/9 FOR DIAGNOSING AND TREATING ENDMT-RELATED DISEASE” (IBMSOL CO., LTD., priority 2021, published 2025)
# Key:
# [1] = tested on: pulmonary artery endothelial cells; assay: EndMT marker expression (Western blot, qRT-PCR) in pulmonary artery endothelial cells treated with TGF-β2 and IL-1β; type: cell-based, human; conditions: PAECs treated simultaneously with TGF-β2, IL-1β and (R)-PFI-2
# Procedure: Pulmonary arterial ECs (PAECs) and human umbilical vein ECs (HUVECs) were cultured in EGM-2 (Lonza) to which MycoZap (Lonza) and 1% penicillin-streptomycin (Welgene) were added. Human Microvascular ECs (HMVECs) were cultured in EGM-2-MV (Lonza), and Lenti-λ-293T and MCF7 cells were cultured in Dulbecco's modified Eagle medium (DMEM) (HyClone) containing 10% fetal bovine serum (FBS, HyClone), 1% penicillin-streptomycin (Welgene), and MycoZap (Lonza). All cell lines were cultured at 37° C. in a 5% CO2 incubator and cultured at 90% density.
# TGF-β2 was purchased from Peprotech and dissolved in pure water containing 0.1% bovine serum albumin (BSA). IL-1β was purchased from R&D System and dissolved in 1×PBS containing 0.1% BSA. […]
# In order to isolate the total RNA, miRNeasy RNA isolation kit (QIAGEN) was used. The purified RNA was reverse transcribed using qPCRBIO cDNA Synthesis Kit (PCR-BIOSYSTEMS), and real-time quantitative PCR (qRT-PCR) was performed using qPCRBIO SyGreen Mix Hi-ROX (PCR-BIOSYSTEMS) according to the manufacturer's instructions. […]
# All cells were lysed in radioimmunoprecipitation assay (RIPA) buffer (Biosesang) containing protease (GenDepot) and phosphatase (Sigma Aldrich) inhibitors for 20 minutes. […] A protein concentration was measured using Pierce BCA Protein Assay Kit (Thermo Scientific), and Laemmli SDS Sample Buffer was added to an equal amount of protein and boiled. […]
# [2] = tested on: pulmonary artery endothelial cells; assay: Phalloidin staining of cytoskeleton change in EndMT-induced pulmonary artery endothelial cells; type: cell-based, human; conditions: TGF-β2, IL-1β and (R)-PFI-2; FIG. 9C
# Procedure: PAECs and Lenti-X-293T were immobilized with 4% formaldehyde and washed with 1×PBS. Thereafter, the cells were permeabilized with 0.2% Triton X-100 and blocked with 1% BSA dissolved in 1×PBS for 1 hour at room temperature. The cells were reacted with the following primary antibodies at 4° C. overnight: anti-VE-cadherin (Cell Signaling, 2500S, 1:100), anti-Fibronectin (BD Pharmigen, 61007, 1:100), anti-TAGLN (Abcam, ab14106, 1:200), anti-α-SMA conjugated with Cy3 (Sigma Aldrich, C6198, 1:200), anti-NF-κB p65 (Cell signaling, 8242S, 1:400), anti-SET7/9 (LsBio, C337450, 1:100), and rhodamine phalloidin (Sigma Aldrich, 1:1,000). Secondary antibodies of donkey anti-goat Alexa Fluor 488 and donkey anti-goat Alexa Fluor 568 (Invitrogen, 1:400) were reacted at room temperature for 1 hour. In order to obtain immunostaining images, a confocal microscope equipped with a 60× objective lens (Zeiss LSM-700) was used.
# In order to confirm the inhibitory effect of the drug on endothelial-mesenchymal transition, a model in which pulmonary artery endothelial cells were simultaneously treated with cyproheptadine along with TGF-β2 and IL-1β for 5 to 7 days was used. […]
# PAECs [3] = assay: Dextran permeation assay; type: cell-based, human; conditions: TGF-β2, IL-1β and (R)-PFI-2; FIG. 9D
# Procedure: PAECs were seeded at 2×10^5 cells per well in a 24-well plate equipped with a cell culture inlet (SPL, 0.4 μm). After a drug treatment, the insert was transferred to a well containing a serum-free medium (SFM), the medium in the insert was replaced with SFM containing FITC-dextran (Sigma Aldrich, FD40S, 1 mg/ml). After 10 minutes and 1 hour, a part of SFM was taken out from the plate well where dextran permeation occurred, and the fluorescence was measured. The fluorescence intensity was measured on a microplate reader (excitation, 485 nm; emission, 530 nm).
# PAECs [4] = assay: Dil-Ac-LDL uptake assay; type: cell-based, human; conditions: TGF-β2, IL-1β and (R)-PFI-2; FIG. 9E
# Procedure: PAECs were seeded at 2×10^5 cells per well in a 12-well plate. After a drug treatment, the cells were reacted with Dil-Ac-LDL (Invitrogen, 10 μg/ml) at 37° C. for 3 hours. After the reaction, the cells were washed four times with 1×PBS and then subjected to image analysis with a fluorescence microscope.
# [5] = tested on: SuHx-induced pulmonary arterial hypertension rats; assay: SuHx-induced pulmonary arterial hypertension animal model; type: in vivo, rat; conditions: subcutaneously 10 mg/kg for 3 weeks
# Procedure: 8-Week-old male Sprague Dawley rats (specific-pathogen-free grade form SaeronBio, Republic of Korea) were used for the PAH rat model.
# Semaxanib (DC Chemicals, SU5416) dissolved in DMSO and then suspended in a buffer (0.5% sodium carboxymethylcellulose, 0.5% sodium chloride, 0.4% Tween-80, and 0.9% benzyl alcohol that were dissolved in deionized water) was injected subcutaneously into the rats at 20 mg/kg. The rats were exposed to 10% 02 hypoxic conditions for 3 weeks. After the rats were restored to normoxic conditions, Cyproheptadine (Cayman) or (R)-PFI-2 (DC Chemicals) was administered. Cyproheptadine was administered intraperitoneally every day at 5 mg/kg for 2 weeks, and (R)-PFI-2 was administered subcutaneously every 2 days at 10 mg/kg for 3 weeks. A right ventricular systolic pressure (RVSP) was measured, and the rats were sacrificed.
# Proteins were separated by sodium dodecyl sulfate polyacrylamide gel electrophoresis (SDS-PAGE) and transferred to a polyvinylidene difluoride membrane (Millipore). After blocking the membrane with 3% BSA dissolved in 0.2% PBS with Tween® detergent (PBST), the proteins on the membrane were reacted with the primary antibodies listed in Table 2 overnight. For immunodetection, HRP-conjugated secondary antibodies (1:4,000) were conjugated with the primary antibodies at room temperature for 1 hour (average temperature of 22° C.), and then detected using an enhanced chemiluminescence detection system (Thermo Scientific). In order to separate cytoplasmic and nuclear proteins, EpiQuik Nuclear Extraction Kit (EpiGentek) was used according to the manufacturer's instructions. Protein extracts from animal lung tissue were homogenized in RIPA buffer for 3 minutes at a frequency of 25 Hz.
# The harvested animal lung tissue was embedded in paraffin blocks and cut into […] sections. The paraffin sections were deparaffinized using Histoclear for 10 minutes. In order to hydrate the sections, ethanol dissolved in pure water was used according to a concentration gradient (100%, 90%, 70%, 50%, 30%, and 0%). The tissue slides were placed in Borg Decloaker RTU antigen retrieval solution (Biocare Medical) and the sections were heated using a pressure cooker to recover antigens. When the temperature of the recovery solution was lowered, the sections were washed three times with 1×PBS for 5 minutes each, and then blocked with a blocking buffer (1% BSA and 5% goat serum dissolved in 1×PBS) at room temperature for 30 minutes. The sections were reacted with the primary antibodies at 4° C. overnight. Anti-vWF conjugated with FITC (Abcam, ab8822, 1:50), anti-α-SMA conjugated with Cy3 (Sigma Aldrich, C6198, 1:100), anti-SM22a (Abcam, ab14106, 1:130), and anti-SET7/9 (LsBio, C337450, 1:50) were used. For fluorescent staining, the sections were reacted with the secondary antibodies such as donkey anti-goat Alexa Fluor 568 (Invitrogen, 1:150 to 1:400), Goat anti-Rabbit Alexa Fluor 647 (Invitrogen, 1:150), and donkey anti-goat Alexa Fluor 568 (Invitrogen, 1:400) at room temperature for 1 hour. For color staining, after the sections were reacted with the primary antibodies overnight, the sections were reacted with Goat anti-Mouse IgG Secondary Antibody, HRP (Pierce, 1:100) for 1 hour and subjected to a color reaction using DAB staining kit (Vector, SK-4800). Hematoxylin-eosin staining was performed using staining products available from Vector. Image analysis was performed using confocal microscopes equipped with a 40× objective available from Zeiss and Leica. The co-localization effect was verified through Mander's overlap coefficient (MOC). […]
# In order to confirm the effect of (R)-PFI-2 in an animal model, (R)-PFI-2 was administered subcutaneously to SuHx-induced pulmonary arterial hypertension rats at a concentration of 10 mg/kg for 3 weeks. […]
# SET7/9 = target: T1, SET7/9 (Homo sapiens, UniProt Q8WTS6); conditions: acts by attaching to the substrate peptide binding groove of SET7/9; cited from earlier work
# T1 sequence (Q8WTS6 1-366): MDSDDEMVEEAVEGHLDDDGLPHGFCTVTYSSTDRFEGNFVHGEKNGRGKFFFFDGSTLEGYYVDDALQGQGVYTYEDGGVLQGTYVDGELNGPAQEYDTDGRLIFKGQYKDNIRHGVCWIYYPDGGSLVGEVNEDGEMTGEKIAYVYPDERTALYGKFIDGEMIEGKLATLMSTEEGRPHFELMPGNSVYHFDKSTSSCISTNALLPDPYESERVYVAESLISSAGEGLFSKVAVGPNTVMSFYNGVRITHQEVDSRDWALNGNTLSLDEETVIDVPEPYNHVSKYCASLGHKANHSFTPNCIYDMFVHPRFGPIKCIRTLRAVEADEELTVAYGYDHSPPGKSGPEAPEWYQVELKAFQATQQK
structure (smiles),measurement,setting,value
O=C([C@@H](Cc1cccc(C(F)(F)F)c1)NS(=O)(=O)c1cc(F)c2c(c1)CCNC2)N1CCCC1 [(R)-PFI-2],"expression of endothelial cell marker CD31 and mesenchymal cell markers TNC, FN, Calponin, SM22α (Western blot)",[1]; FIG. 9A,restoration
same,"expression of PECAM1 and FN, CDH2, COL3A1 (qRT-PCR)",[1]; FIG. 9B,restoration
same,change in cytoskeleton (phalloidin staining),[2],reduced
same,permeability,PAECs [3],restored
same,Dil-Ac-LDL uptake ability,PAECs [4],restored
same,SET7/9 expression in blood vessels,"[5]; SuHx rat lung tissue, FIG. 10D",decrease
same,area where endothelial and mesenchymal cell markers were simultaneously stained (EndMT),"[5]; SuHx rat lung tissue, FIG. 10D",decrease
same,right ventricular systolic pressure (RVSP mmHg),"[5]; SuHx rats, FIG. 10A",decreased
same,right ventricle/left ventricle+septum ratio (RV/LV+S %),"[5]; SuHx rats, FIG. 10B",decreased
same,right ventricle weight (RV mg),"[5]; SuHx rats, FIG. 10C",decreased
same,muscularization of lung tissue blood vessels (immunohistochemical staining),"[5]; SuHx rats, FIG. 10D",significantly reduced
same,expression of TGFβR1 in lung tissue,"[5]; SuHx rats, FIG. 10F",decreased
same,expression of mesenchymal cell markers such as Twist and pVIM in lung tissue,"[5]; SuHx rats, FIG. 10F",decreased
same,expression of phosphorylated SMAD2 protein in lung tissue,"[5]; SuHx rats, FIG. 10F",significantly decreased
same,number of blocked or enlarged blood vessels in lung tissue (H&E staining),"[5]; compared to SuHx group, FIG. 10E",reduced
same,mode of inhibition of SET7/9,SET7/9,substrate competitive inhibitor
